pKi: −log10 of the molar value.
Experiments:
[1] = biological target: T1, human adenosine A2A receptor (Homo sapiens, UniProt P29274); assay: Human adenosine A2A receptor [3H]-SCH-58261 binding assay; conditions: for pKi: affinity to human adenosine A2A receptor, read-out: Ki HA2A; for selectivity (A1/A2a): calculated ratio of the affinity to the HA1 receptor to the HA2a receptor
T1 construct: expressed in transfected cells; host or cells: CHO cells, Semliki Forest virus expression system; membrane preparation

HA1 adenosine receptor = biological target: T2, HA1 adenosine receptor (Homo sapiens, UniProt P30542); assay: Human adenosine A1 receptor affinity (Ki hA1); type: binding; conditions: affinity to human adenosine A1 receptor
T2 sequence (P30542 1-326): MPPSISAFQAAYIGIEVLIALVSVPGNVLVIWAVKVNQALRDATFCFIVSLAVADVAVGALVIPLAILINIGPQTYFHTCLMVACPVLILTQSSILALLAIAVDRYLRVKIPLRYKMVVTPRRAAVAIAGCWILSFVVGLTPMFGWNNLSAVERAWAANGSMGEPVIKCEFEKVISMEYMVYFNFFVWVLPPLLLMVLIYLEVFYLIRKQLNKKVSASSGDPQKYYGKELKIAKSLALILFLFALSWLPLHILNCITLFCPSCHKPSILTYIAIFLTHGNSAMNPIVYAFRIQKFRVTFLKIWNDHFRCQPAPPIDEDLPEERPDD

T1 sequence (P29274 whole entry): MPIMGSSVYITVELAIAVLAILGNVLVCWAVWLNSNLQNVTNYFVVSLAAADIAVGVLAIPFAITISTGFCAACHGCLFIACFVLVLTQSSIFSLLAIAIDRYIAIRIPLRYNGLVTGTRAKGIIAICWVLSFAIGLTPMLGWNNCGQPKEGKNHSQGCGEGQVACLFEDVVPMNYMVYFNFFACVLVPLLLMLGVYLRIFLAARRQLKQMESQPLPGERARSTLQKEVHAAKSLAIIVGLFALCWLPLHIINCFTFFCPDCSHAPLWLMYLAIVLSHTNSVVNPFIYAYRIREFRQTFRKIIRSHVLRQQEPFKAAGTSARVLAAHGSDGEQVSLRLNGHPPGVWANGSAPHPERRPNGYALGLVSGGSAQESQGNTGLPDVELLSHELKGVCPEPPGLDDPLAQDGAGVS

| pKi [1] | selectivity (A1/A2a) [1] | pKi (HA1 adenosine receptor) | SMILES |
| --- | --- | --- | --- |
| 7.61 | 17.7 | 6.37 | Nc1cc(C(=O)N2CCSCC2)cc2nc(-c3ccc(Cl)o3)nn12 [Example 256, [5-Amino-2-(5-chloro-furan-2-yl)-[1,2,4]triazolo[1,5-a]pyridin-7-yl]-thiomorpholin-4-yl-methanone] |
| 7.54 | 28.3 | 6.09 | CC1CN(C(=O)c2cc(N)n3nc(-c4ccc(Cl)o4)nc3c2)CC(C)O1 (stereo not drawn) [Example 257, [5-Amino-2-(5-chloro-furan-2-yl)-[1,2,4]triazolo[1,5-a]pyridin-7-yl]-(2,6-dimethyl-morpholin-4-yl)-methanone] |
| 8.14 | 30.6 | 6.66 | CC1CCC(C)N1C(=O)c1cc(N)n2nc(-c3ccc(Cl)o3)nc2c1 (stereo not drawn) [Example 258, [5-Amino-2-(5-chloro-furan-2-yl)-[1,2,4]triazolo[1,5-a]pyridin-7-yl]-(2,5-dimethyl-pyrrolidin-1-yl)-methanone] |
| 6.92 | 4.5 | 6.27 | NC(=O)C1CCN(C(=O)c2cc(N)n3nc(-c4ccc(Cl)o4)nc3c2)CC1 [Example 259, 1-[5-Amino-2-(5-chloro-furan-2-yl)-[1,2,4]triazolo[1,5-a]pyridine-7-carbonyl]-piperidine-4-carboxylic acid amide] |
| 7.87 | 20.2 | 6.57 | COCCN(CCOC)C(=O)c1cc(N)n2nc(-c3ccc(Cl)o3)nc2c1 [Example 260, 5-Amino-2-(5-chloro-furan-2-yl)-[1,2,4]triazolo[1,5-a]pyridine-7-carboxylic acid bis-(2-methoxy-ethyl)-amide] |
| 8.59 | 14.7 | 7.42 | CCN(Cc1ccccc1)C(=O)c1cc(N)n2nc(-c3ccc(Cl)o3)nc2c1 [Example 261, 5-Amino-2-(5-chloro-furan-2-yl)-[1,2,4]triazolo[1,5-a]pyridine-7-carboxylic acid benzyl-ethyl-amide] |
| 8.54 | 36.8 | 6.97 | CCN(Cc1ccncc1)C(=O)c1cc(N)n2nc(-c3ccc(Cl)o3)nc2c1 [Example 262, 5-Amino-2-(5-chloro-furan-2-yl)-[1,2,4]triazolo[1,5-a]pyridine-7-carboxylic acid ethyl-pyridin-4-ylmethyl-amide] |
| 7.40 | 7.6 | 6.52 | Nc1cc(C(=O)N2CC=C(c3ccccc3)CC2)cc2nc(-c3ccc(Cl)o3)nn12 [Example 263, [5-Amino-2-(5-chloro-furan-2-yl)-[1,2,4]triazolo[1,5-a]pyridin-7-yl]-(4-phenyl-3,6-dihydro-2H-pyridin-1-yl)-methanone] |
| 8.19 | 42.7 | 6.56 | CCN(C)C(=O)c1cc(N)n2nc(-c3ccc(Br)o3)nc2c1 [Example 264, 5-Amino-2-(5-bromo-furan-2-yl)-[1,2,4]triazolo[1,5-a]pyridine-7-carboxylic acid ethyl-methyl-amide] |
| 8.13 | 76.2 | 6.25 | Nc1cc(C(=O)N2CC=CC2)cc2nc(-c3ccc(Br)o3)nn12 [Example 265, [5-Amino-2-(5-bromo-furan-2-yl)-[1,2,4]triazolo[1,5-a]pyridin-7-yl]-(2,5-dihydro-pyrrol-1-yl)-methanone] |
| 8.51 | 79.4 | 6.61 | C#CCN(C)C(=O)c1cc(N)n2nc(-c3ccc(Br)o3)nc2c1 [Example 266, 5-Amino-2-(5-bromo-furan-2-yl)-[1,2,4]triazolo[1,5-a]pyridine-7-carboxylic acid methyl-prop-2-ynyl-amide] |
| 8.37 | 42.0 | 6.74 | C=CCN(C)C(=O)c1cc(N)n2nc(-c3ccc(Br)o3)nc2c1 [Example 267, 5-Amino-2-(5-bromo-furan-2-yl)-[1,2,4]triazolo[1,5-a]pyridine-7-carboxylic acid allyl-methyl-amide] |
| 8.57 | 40.9 | 6.96 | CC(C)N(C)C(=O)c1cc(N)n2nc(-c3ccc(Br)o3)nc2c1 [Example 269, 5-Amino-2-(5-bromo-furan-2-yl)-[1,2,4]triazolo[1,5-a]pyridine-7-carboxylic acid isopropyl-methyl-amide] |
| 8.19 | 22.9 | 6.83 | CCCCN(C)C(=O)c1cc(N)n2nc(-c3ccc(Br)o3)nc2c1 [Example 271, 5-Amino-2-(5-bromo-furan-2-yl)-[1,2,4]triazolo[1,5-a]pyridine-7-carboxylic acid butyl-methyl-amide] |
| 8.66 | 36.8 | 7.09 | CCN(C(=O)c1cc(N)n2nc(-c3ccc(Br)o3)nc2c1)C(C)C [Example 272, 5-Amino-2-(5-bromo-furan-2-yl)-[1,2,4]triazolo[1,5-a]pyridine-7-carboxylic acid ethyl-isopropyl-amide] |
| 8.41 | 64.4 | 6.60 | CC1C=CC(C)N1C(=O)c1cc(N)n2nc(-c3ccc(Br)o3)nc2c1 (stereo not drawn) [Example 273, [5-Amino-2-(5-bromo-furan-2-yl)-[1,2,4]triazolo[1,5-a]pyridin-7-yl]-(2,5-dimethyl-2,5-dihydro-pyrrol-1-yl)-methanone] |
| 8.55 | 41.6 | 6.93 | C=CCN(CC=C)C(=O)c1cc(N)n2nc(-c3ccc(Br)o3)nc2c1 [Example 274, 5-Amino-2-(5-bromo-furan-2-yl)-[1,2,4]triazolo[1,5-a]pyridine-7-carboxylic acid diallylamide] |
| 8.27 | 38.7 | 6.68 | CC1CCC(C)N1C(=O)c1cc(N)n2nc(-c3ccc(Br)o3)nc2c1 (stereo not drawn) [Example 275, [5-Amino-2-(5-bromo-furan-2-yl)-[1,2,4]triazolo[1,5-a]pyridin-7-yl]-(2,5-dimethyl-pyrrolidin-1-yl)-methanone] |
| 8.00 | 22.6 | 6.64 | CC(C)N(C(=O)c1cc(N)n2nc(-c3ccc(Br)o3)nc2c1)C(C)C [Example 276, 5-Amino-2-(5-bromo-furan-2-yl)-[1,2,4]triazolo[1,5-a]pyridine-7-carboxylic acid diisopropylamide] |
| 8.49 | 40.3 | 6.89 | CCCCN(CC)C(=O)c1cc(N)n2nc(-c3ccc(Br)o3)nc2c1 [Example 277, 5-Amino-2-(5-bromo-furan-2-yl)-[1,2,4]triazolo[1,5-a]pyridine-7-carboxylic acid butyl-ethyl-amide] |
| 8.25 | 16.8 | 7.03 | CCCCCN(C)C(=O)c1cc(N)n2nc(-c3ccc(Br)o3)nc2c1 [Example 278, 5-Amino-2-(5-bromo-furan-2-yl)-[1,2,4]triazolo[1,5-a]pyridine-7-carboxylic acid methyl-pentyl-amide] |
| 6.91 | 8.5 | 5.97 | CN(C)CCN(C)C(=O)c1cc(N)n2nc(-c3ccc(Br)o3)nc2c1 [Example 279, 5-Amino-2-(5-bromo-furan-2-yl)-[1,2,4]triazolo[1,5-a]pyridine-7-carboxylic acid (2-dimethylamino-ethyl)-methyl-amide] |
| 7.08 | 51.9 | 5.36 | Nc1cc(C(=O)N2CC=CC2)cc2nc(-c3nccs3)nn12 [Example 281, (5-Amino-2-thiazol-2-yl-[1,2,4]triazolo[1,5-a]pyridin-7-yl)-(2,5-dihydro-pyrrol-1-yl)-methanone] |
| 7.07 | 48.5 | 5.38 | C#CCN(C)C(=O)c1cc(N)n2nc(-c3nccs3)nc2c1 [Example 282, 5-Amino-2-thiazol-2-yl-[1,2,4]triazolo[1,5-a]pyridine-7-carboxylic acid methyl-prop-2-ynyl-amide] |
| 6.94 | 27.0 | 5.50 | C=CCN(C)C(=O)c1cc(N)n2nc(-c3nccs3)nc2c1 [Example 283, 5-Amino-2-thiazol-2-yl-[1,2,4]triazolo[1,5-a]pyridine-7-carboxylic acid allyl-methyl-amide] |
| 6.88 | 29.5 | 5.41 | CCCN(C)C(=O)c1cc(N)n2nc(-c3nccs3)nc2c1 [Example 284, 5-Amino-2-thiazol-2-yl-[1,2,4]triazolo[1,5-a]pyridine-7-carboxylic acid methyl-propyl-amide] |
| 7.08 | 32.6 | 5.56 | CC(C)N(C)C(=O)c1cc(N)n2nc(-c3nccs3)nc2c1 [Example 285, 5-Amino-2-thiazol-2-yl-[1,2,4]triazolo[1,5-a]pyridine-7-carboxylic acid isopropyl-methyl-amide] |
| 7.49 | 91.8 | 5.53 | CC1CCCN1C(=O)c1cc(N)n2nc(-c3nccs3)nc2c1 (stereo not drawn) [Example 286, (5-Amino-2-thiazol-2-yl-[1,2,4]triazolo[1,5-a]pyridin-7-yl)-(2-methyl-pyrrolidin-1-yl)-methanone] |
| 6.85 | 15.4 | 5.66 | CCCCN(C)C(=O)c1cc(N)n2nc(-c3nccs3)nc2c1 [Example 287, 5-Amino-2-thiazol-2-yl-[1,2,4]triazolo[1,5-a]pyridine-7-carboxylic acid butyl-methyl-amide] |

Source: patent US6506772B1, “Substituted [1,2,4]triazolo[1,5a]pyridine derivatives with activity as adenosine receptor ligands” (Hoffmann-La Roche Inc., priority 2000, dated 2003)
